Data from patent publication US4045298A, “Antibiotic XK-62-2 and process for production thereof” (priority 1972, dated 1977).
≈ marks a conversion by molar mass, not a printed value. Read-outs that look alike come from different tables or passages of the source.

Experiments:
[1] = tested on: Gram-positive and Gram-negative bacteria; test: Antibacterial activity against Gram-positive and Gram-negative bacteria (summary); type: cell-based
Escherichia coli KY 8315 = test: Antibacterial spectra by agar dilution method; type: cell-based; details: KY8315, resistant to streptomycin, kanamycin, paromomycin and neomycin, read-out: Minimum inhibitory concentration
Description: (§1) Antibacterial spectra of XK-62-2 by agar

Escherichia coli KY 8302 = test: Antibacterial spectra by agar dilution method; type: cell-based; details: KY8302, resistant to chloramphenicol, streptomycin, kanamycin, paromomycin, tetracycline and spectinomycin, read-out: Minimum inhibitory concentration
Description: as §1

[2] = tested on: Staphylococcus aureus KY 8953; test: Antibacterial spectra by agar dilution method; type: cell-based; details: KY8953, resistant to streptomycin, kanamycin, paromomycin, tetracycline, neomycin, kanendomycin and erythromycin, read-out: Minimum inhibitory concentration
Description: as §1

[3] = tested on: Bacillus cereus var. myccides ATCC 9463; test: Antibacterial spectra by agar dilution method; type: cell-based; details: ATCC9463, Table 5, read-out: Minimum inhibitory concentration
Description: as §1

[4] = tested on: Shigella sonnei ATCC 9290; test: Antibacterial spectra by agar dilution method; type: cell-based; details: ATCC9290, Table 5, read-out: Minimum inhibitory concentration
Description: as §1

[5] = tested on: Staphylococcus aureus ATCC 6538P; test: Antibacterial spectra by agar dilution method; type: cell-based; details: ATCC6538P, Table 5, read-out: Minimum inhibitory concentration
Description: as §1

[6] = tested on: Bacillus subtilis No. 10707; test: Antibacterial spectra by agar dilution method; type: cell-based; details: Table 5, read-out: Minimum inhibitory concentration
Description: as §1

[7] = tested on: Streptococcus faecalis ATCC 10541; test: Antibacterial spectra by agar dilution method; type: cell-based; details: Enterococcus faecalis, ATCC10541, Table 5, read-out: Minimum inhibitory concentration
Description: as §1

[8] = tested on: Staphylococcus aureus KY 8942; test: Antibacterial spectra by agar dilution method; type: cell-based; details: KY8942, resistant to kanamycin, paromomycin and streptomycin, read-out: Minimum inhibitory concentration
Description: as §1

[9] = tested on: specific enzyme system which inactivates gentamicin C1a or kanamycin by acetylating; type: biochemical, Pseudomonas aeruginosa
[10] = tested on: Pseudomonas aeruginosa KY 8510; test: Minimum inhibitory concentration by agar dilution method; type: cell-based
Description: (§2) Minimum inhibitory concentration
(§3) (γ/ml : by agar dilution method)

[11] = tested on: Pseudomonas aeruginosa KY 8516; test: as above; type: cell-based
Description: as §2, §3

[12] = tested on: Pseudomonas aeruginosa KY 8511; test: as above; type: cell-based; details: KY8511, clinical isolate, Table 7
Description: as §2, §3

[13] = tested on: Pseudomonas aeruginosa KY 8520; test: as above; type: cell-based; details: KY8520, clinical isolate, Table 7
Description: as §2, §3

[14] = tested on: Pseudomonas aeruginosa KY 8514; test: as above; type: cell-based; details: KY8514, clinical isolate, Table 7
Description: as §2, §3

[15] = tested on: Pseudomonas aeruginosa KY 8515; test: as above; type: cell-based; details: KY8515, clinical isolate, Table 7
Description: as §2, §3

[16] = tested on: Pseudomonas aeruginosa KY 8512; test: as above; type: cell-based; details: KY8512, clinical isolate, Table 7
Description: as §2, §3

[17] = tested on: Pseudomonas aeruginosa KY 4276; test: as above; type: cell-based; details: KY4276, clinical isolate, Table 7
Description: as §2, §3

[18] = tested on: Pseudomonas aeruginosa KY 8562; test: as above; type: cell-based; details: KY8562, clinical isolate, Table 7
Description: as §2, §3

[19] = tested on: Bacillus subtilis No. 10707; test: Activity (unit/mg) of isolated preparations; paper disk method using an agar plate; type: cell-based
Method: After the completion of fermentation, the culture liquor is adjusted to a pH of 2.0 with 12N sulfuric acid and stirred for 30 minutes. Then, about 10 kg of a filter aid, Radiolite No. 600 (product of Showa Kagaku Kogyo Co., Ltd., Japan) is added thereto and the microbial cells are removed by filtration. The filtrate is adjusted to a pH of 8.0 with 6N sodium hydroxide and passed through a column packed with about 50 l of a cation exchange resin, Amberlite IRC-50 (ammonia form). The active substance is adsorbed on the resin and the eluate is discarded. After washing the resin with water, the active substance is eluted out with 1N aqueous ammonia.
Active fractions are combined and concentrated in vacuo to about 5 l. The concentrate is then adjusted to a pH of 8.0 with 6N sulfuric acid and passed through a column packed with 1 l of an anion exchange resin, Dowex 1×2 (OH^- form). The column is washed with about 5 l of water and the effluent and the washings containing active substance are combined and are concentrated to 1/15 by volume. […] The resultant precipitate is removed by filtration and the filtrate is concentrated to 500 ml. The concentrate is adjusted to a pH of 4.5 with 6N sulfuric acid and 2.5 l of methanol is added thereto. […] The precipitate is separated by filtration and washed with methanol.
After the completion of fermentation, the culture liquor is adjusted to a pH of 2.0 with 12N sulfuric acid and stirred for 30 minutes. Then, about 10 kg of Radiolite No. 600 (trade name) is added thereto and the microbial cells are removed by filtration. The filtrate is adjusted to a pH of 8.0 with 6N sodium hydroxide and passed through a column packed with about 50 l of a cation exchange resin, Amberlite IRC-50 (ammonia form). The eluate is discarded. After washing the resin with water, the active substance is eluted out with 1N aqueous ammonia.

[20] = tested on: Proteus vulgaris ATCC 6897; test: Minimum inhibitory concentration by agar dilution method; type: cell-based; details: ATCC6897, agar dilution
Description: as §1
The comparative in vitro activities of these antibiotics against various microorganisms of the genus Proteus are shown in the following Table 6.
as §2, §3

[21] = vs gentamicin complex or gentamicin C1a

## CNC[C@@H]1CC[C@@H](N)[C@@H](O[C@H]2[C@H](O)[C@@H](O[C@H]3OC[C@](C)(O)[C@H](NC)[C@H]3O)[C@H](N)C[C@@H]2N)O1 [XK-62-2]
[1]; both in vitro and in vivo, broad range of Gram-positive and Gram-negative bacteria
  Antibacterial activity: very strong antibacterial activity
[1]; in vitro, vs gentamicin
  In vitro activity relative to gentamicin: comparable
[1]; in vitro, vs streptomycin and kanamycin
  In vitro activity relative to streptomycin and kanamycin: far superior
Escherichia coli KY 8315
  MIC: 0.016 mg/L (≈ 0.0345 µM)
Escherichia coli KY 8302
  MIC: 0.033 mg/L (≈ 0.0712 µM)
[2]
  MIC: 0.0041 mg/L (≈ 0.00884 µM)
[3]
  MIC: 0.0082 mg/L (≈ 0.0177 µM)
[4]
  MIC: 0.07 mg/L (≈ 0.151 µM)
[5]
  MIC: < 0.0041 mg/L
[6]
  MIC: < 0.004 mg/L
[7]
  MIC: 1.05 mg/L (≈ 2.27 µM)
[8]
  MIC: 0.065 mg/L (≈ 0.14 µM)
[9]
  Inactivation by acetylation (6'-NH2): free from acetylation
[10]; KY 8510
  Susceptibility of strain: sensitive
[10]; Pseudomonas aeruginosa, KY8510, agar dilution, clinical isolate, Table 7
  MIC: 0.33 mg/L (≈ 0.712 µM)
[10]; [21]
  Antibacterial activity relative to gentamicin complex or gentamicin C1a: much higher antibacterial activity
[11]; KY 8516
  Susceptibility of strain: sensitive
[11]; Pseudomonas aeruginosa, KY8516, agar dilution, clinical isolate, Table 7
  MIC: 0.33 mg/L (≈ 0.712 µM)
[11]; [21]
  Antibacterial activity relative to gentamicin complex or gentamicin C1a: much higher antibacterial activity
[12]
  MIC: > 42 mg/L
[13]
  MIC: 0.33 mg/L (≈ 0.712 µM)
[14]
  MIC: 0.55 mg/L (≈ 1.19 µM)
[15]
  MIC: > 42 mg/L
[16]
  MIC: 0.33 mg/L (≈ 0.712 µM)
[17]
  MIC: 0.33 mg/L (≈ 0.712 µM)
[18]
  MIC: > 42 mg/L
[19]; Example 1, purified preparate, free base
  Activity: 950 unit/mg
[19]; Example 2, free base, Mm-628 ATCC 21827
  Activity: 932 unit/mg
[19]; Example 3, purified preparate, free base
  Activity: about 950 unit/mg
[19]; Example 4, free base
  Activity: 900 unit/mg
[19]; Example 5, free base
  Activity: 975 unit/mg
[19]; Example 6, free base, Micromonospora purpurea ATCC 15835
  Activity: 925 unit/mg
[19]; Example 7, free base, Micromonospora echinospora ATCC 15837 NRRL 2985
  Activity: 898 unit/mg
[19]; Example 7, free base, Micromonospora echinospora var. ferruginea NRRL 2995
  Activity: 912 unit/mg
[19]; Example 7, free base, Micromonospora echinospora var. pallida NRRL 2996
  Activity: 925 unit/mg
[20]; Table 5, read-out: Minimum inhibitory concentration
  MIC: 0.03 mg/L (≈ 0.0647 µM)
[20]; Table 6, read-out: Minimum inhibitory concentration
  MIC: 0.04 mg/L (≈ 0.0863 µM)
